The values below come from patent US20080125432A1 (Devgen NV, priority 2004, published 2008).

For assay [1], the target named is T1, Ito (Kv4.3) (Homo sapiens, UniProt Q9UK17).
T1 construct: endogenous in cells; host or cells: freshly isolated human atrial myocytes
T1 sequence (Q9UK17 1-655): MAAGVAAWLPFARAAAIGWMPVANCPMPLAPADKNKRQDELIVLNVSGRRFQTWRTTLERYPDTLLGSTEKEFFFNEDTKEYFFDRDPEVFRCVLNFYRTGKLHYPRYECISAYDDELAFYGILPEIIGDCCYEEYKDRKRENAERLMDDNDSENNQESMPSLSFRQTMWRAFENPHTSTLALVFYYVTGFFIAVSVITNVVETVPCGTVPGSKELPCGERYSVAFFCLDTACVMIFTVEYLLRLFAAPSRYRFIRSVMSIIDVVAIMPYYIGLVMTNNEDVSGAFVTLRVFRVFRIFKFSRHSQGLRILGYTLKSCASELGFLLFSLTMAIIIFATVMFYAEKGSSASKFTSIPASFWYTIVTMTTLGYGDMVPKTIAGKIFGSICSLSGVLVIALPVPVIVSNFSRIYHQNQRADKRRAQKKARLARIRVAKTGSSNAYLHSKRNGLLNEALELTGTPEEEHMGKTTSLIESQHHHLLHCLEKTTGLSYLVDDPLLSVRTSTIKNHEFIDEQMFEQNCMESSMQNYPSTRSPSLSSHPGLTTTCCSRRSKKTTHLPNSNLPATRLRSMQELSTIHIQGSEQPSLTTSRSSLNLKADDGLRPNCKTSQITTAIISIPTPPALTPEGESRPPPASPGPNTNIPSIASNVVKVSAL
T1 sequence (Q9NS61 1-270 partner): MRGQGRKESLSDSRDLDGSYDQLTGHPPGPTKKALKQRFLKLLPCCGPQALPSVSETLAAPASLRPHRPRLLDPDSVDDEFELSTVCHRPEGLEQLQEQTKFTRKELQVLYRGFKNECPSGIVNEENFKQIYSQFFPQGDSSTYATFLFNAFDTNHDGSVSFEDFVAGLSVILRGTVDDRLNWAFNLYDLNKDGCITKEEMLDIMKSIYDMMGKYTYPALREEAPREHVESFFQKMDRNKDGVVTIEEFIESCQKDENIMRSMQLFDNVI
Briefly: Whole-cell patch clamp in human atrial myocytes: Ito. In kind it is cell-based. The protocol: (§1) The blocking profile of the compounds of the invention is determined on the following channels of the human atrial myocytes: INa, Ito, Isus and IK1 channel currents.
(§2) Human atrial myocytes: Myocytes were prepared from specimens with grossly normal anatomical aspect, excised from hearts of patients with normal P-wave electrocardiogram, undergoing bypass surgery. Human atrial sample were obtained following approval by the ethical committee. […]
(§3) Experiments were performed at room temperature (20-25° C.) for INa and at 32-34° C. for Ito, Isus, IK1. Currents were measured using the whole-cell variant of the patch clamp method. […]
(§4) After rupture of the cell membrane to enter the whole-cell mode, current amplitude and kinetics were allowed to stabilize for 3-7 min before initiating the experimental procedure. K^+ currents recorded from human atrial myocytes were elicited by a 500 ms pulse to +60 mV from a holding potential of −50 mV for Ito and Isus. Ito was measured as a peak current amplitude whereas Isus as a current present at the end of the 500 ms voltage pulse. In addition, the area under the curve, before and after compound, were measured over the course of the pulse period. […]
A general note: Patch clamp records ionic current or voltage across a cell membrane.

Assay [2] addresses T2, Kv1.5 (Homo sapiens, UniProt P22460).
T2 construct: endogenous in cells; host or cells: freshly isolated human atrial myocytes
Briefly: Whole-cell patch clamp in human atrial myocytes: Kv1.5 current calculated from Isus. In kind it is cell-based. The protocol: as §1, §2, §3, §4

T2 sequence (P22460 whole entry): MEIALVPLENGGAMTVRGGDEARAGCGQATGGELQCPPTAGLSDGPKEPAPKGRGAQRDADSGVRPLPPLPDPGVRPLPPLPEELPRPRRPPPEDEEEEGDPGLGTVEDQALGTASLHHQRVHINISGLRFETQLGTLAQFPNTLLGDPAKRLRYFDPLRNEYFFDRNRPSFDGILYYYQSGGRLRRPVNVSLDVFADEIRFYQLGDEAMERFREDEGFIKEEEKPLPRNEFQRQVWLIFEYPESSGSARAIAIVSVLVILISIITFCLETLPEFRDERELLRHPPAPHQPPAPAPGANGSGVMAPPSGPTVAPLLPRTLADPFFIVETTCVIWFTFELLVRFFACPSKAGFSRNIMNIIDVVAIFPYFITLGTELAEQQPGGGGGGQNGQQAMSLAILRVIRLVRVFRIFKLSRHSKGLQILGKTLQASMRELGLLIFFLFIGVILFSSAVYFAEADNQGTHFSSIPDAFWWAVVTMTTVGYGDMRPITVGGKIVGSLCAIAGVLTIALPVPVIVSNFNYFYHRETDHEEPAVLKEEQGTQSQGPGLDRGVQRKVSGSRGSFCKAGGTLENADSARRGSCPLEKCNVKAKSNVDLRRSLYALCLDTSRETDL

On to `COc1ccccc1Nc1nc(C)c(C(=O)N[C@H]2CCC[C@@H]2OCc2ccccc2)s1` [Compound 68, 2-(2-methoxy-phenylamino)-4-methyl-thiazole-5-carboxylic acid (1S,2S)-2-(benzyloxycyclopent-1-yl) amide], for which the “Block at 10 μM in %: Ito (Kv4.3)” value in assay [1] (10 μM, n = 3 cells) is 82.0 ± 3.6%. Also, the IC50 is 800 nM in assay [1] (dose-response analysis, read-out: IC50 on the ITO current) and 1400 nM in assay [2] (dose-response analysis, Kv1.5 derived from subtracting the remaining current from the end of pulse current amplitude). Also, the “Block at 10 μM in %: Kv1.5 (calculated)” value in assay [2] (10 μM, n = 3 cells, derived from subtracting the remaining current from the end of pulse current amplitude) is reported as 81.1 ± 3.7%.

One may read the IC50 as the concentration at which inhibition is half-maximal.
